Test results reported in patent publication US11643413B2, “9-(2-oxacycloalkyl)-9H-purine-2,6-diamine derivatives and their use for the treatment of skin disorders” (UNIVERZITA PALACKEHO V OLOMOUCI, priority 2017, dated 2023).
Read-outs that look alike come from different tables or passages of the source.

Assays:
[1] = system: B10A.4
Excerpt: (§1) One of the parameters used, as the basis for cytotoxicity assays, is the metabolic activity of viable cells. For example, a microtiter assay, which uses the Calcein AM, is now widely used to quantitate cell proliferation and cytotoxicity. […] Because only metabolically active cells cleave Calcein AM, these assays detect viable cells exclusively. The quantity of reduced Calcein AM corresponds to the number of vital cells in the culture.
(§2) Mouse fibroblasts NIH3T3; mouse immortalized bone marrow macrophages B2.4 and B10A.4, and BJ (human foreskin fibroblasts) were used for routine screening of compounds. The cells were maintained in Nunc/Corning 80 cm^2 plastic tissue culture flasks and cultured in cell culture medium (DMEM with 5 g/l glucose, 2 mM glutamine, 100 U/ml penicillin, 100 μg/ml streptomycin, 10% fetal calf serum and sodium bicarbonate).
(§3) The cell suspensions that were prepared and diluted according to the particular cell type and the expected target cell density (2.500-30.000 cells per well based on cell growth characteristics) were added by pipette (80 μl) into 96/well microtiter plates. Inoculates were allowed a pre-incubation period of 24 hours at 37° C. and 5% CO2 for stabilisation. Four-fold dilutions of the intended test concentration were added at time zero in 20 μl aliquots to the microtiter plate wells. Usually, the compound tested was evaluated at six 4-fold dilutions. […] All compound concentrations were examined in duplicates. Incubations of cells with the tested compounds lasted for 72 hours at 37° C., in 5% CO2 atmosphere and 100% humidity. At the end of the incubation period, the cells were assayed by using Calcein AM. Ten microliters of the stock solution were pipetted into each well and incubated for 1 hour. Fluorescence (FD) was measured with the Labsystem FIA Reader Fluoroscan Ascent (UK).

[2] = system: B10A.4; remark: listed apart in the source
Excerpt: as §1, §2, §3

[3] = system: NIH-3T3
Excerpt: as §1, §2, §3

[4] = system: BJ (human foreskin fibroblasts)
Excerpt: as §1, §2, §3

[5] = system: B10A.4; experiment: Calcein AM cytotoxicity, B10A.4 (first column); conditions: read-out: Cytotoxicity IC50, B10A.4; 72 hours incubation, Calcein AM; highest concentration […]
Excerpt: as §1, §2, §3

[6] = system: BJ (human foreskin fibroblasts); experiment: Calcein AM cytotoxicity, BJ; conditions: read-out: Cytotoxicity IC50, BJ; 72 hours incubation, Calcein AM; highest concentration […]
Excerpt: as §1, §2, §3

[7] = system: B10A.4; experiment: Calcein AM cytotoxicity, B10A.4 (second column); conditions: read-out: Cytotoxicity IC50, B10A.4, 72 hours incubation, highest concentration […]
Excerpt: as §1, §2, §3

[8] = system: NIH3T3 fibroblasts; experiment: Peroxidation of membrane lipids, MDA by TBA method; assay type: cell-based, mouse; conditions: FW = fresh weight
Experimental: A typical symptom associated with aging is the direct consequence of increased concentrations of reactive oxygen species and lipid peroxidation. […] MDA levels were measured using thiobarbituric acid (TBA method). […] The crude extract was centrifuged at 10,000×g for 5 minutes and 100 μl aliquots of the supernatant were mixed with 100 μl of 0.5% (w/v) TBA containing 0.1% (w/v) trichloroacetic acid. The resulting solution was then incubated for 30 min at 95° C. The samples were rapidly cooled on ice and centrifuged for 5 minutes at 1000×g. […] The newly prepared derivatives of the general formula thus have a protective function against the negative effects of reactive oxygen species that accumulate strongly in the tissues.

[9] = system: NIH-3T3; experiment: Calcein AM cytotoxicity, NIH-3T3; conditions: read-out: Cytotoxicity IC50, NIH-3T3; 72 hours incubation, Calcein AM; highest concentration […]
Excerpt: as §1, §2, §3

[10] = Calcein AM cytotoxicity, B10A.4 (first column); conditions: mouse, B10A.4 immortalized bone marrow macrophages
Excerpt: as §1, §2, §3

[11] = Calcein AM cytotoxicity, BJ; conditions: human, BJ foreskin fibroblasts
Excerpt: as §1, §2, §3

[12] = Calcein AM cytotoxicity, NIH-3T3; conditions: mouse, NIH-3T3 fibroblasts
Excerpt: as §1, §2, §3

[13] = Radical scavenging activity determined by ORAC; conditions: relative to trolox; Mean ± SD (n = 3)
Experimental: The ability of compounds to scavenge free radicals in vitro was determined by Oxygen Radical Absorbance Capacity (ORAC) method. In brief, fluorescein (100 μl, […]) and 25 μl of compound solution were added into each working well in a 96-well microplate preincubated at 37° C. Thereafter, 25 μL of 250 mM AAPH was quickly added, microplate was shaken for 5 s and the fluorescence (Ex. 485 nm, Em. 510 nm) was read every 3 min over 90 min by using microplate reader Infinite 200 (TECAN, Switzerland). The net area under the curve was used to express antioxidant activity relative to trolox which was used as a standard.

SMILES	IC50 [5] [µM]	IC50 [6] [µM]	IC50 [7] [µM]	MDA [8] [nmol/g FW]	IC50 [9] [µM]	IC50 [1] [µM]	IC50 [2] [µM]	IC50 [3] [µM]	IC50 [4] [µM]	also measured
Nc1ncnc2nc[nH]c12 [Adenine, reference compound]										IC50 ([1]; mouse, 72 h): > 167 µM; IC50 ([2]; mouse, 72 h): > 167 µM; IC50 ([3]; mouse, 72 h): > 167 µM; IC50 ([4]; human, 72 h): > 167 µM
CC(C)=CCNc1nc(N(C)C)nc2c1ncn2C1CCO1 (stereo not drawn) [Compound 13]	> 167	> 167	> 167	13.1	> 167					
CCN(CC)c1nc(NCC=C(C)C)c2ncn(C3CCO3)c2n1 (stereo not drawn) [Compound 14]	> 167	> 167	> 167	11.4	> 167					
Cc1ccc(CNc2nc(N(C)C)nc3c2ncn3C2CCCO2)o1 (stereo not drawn) [Compound 46, 2-(Dimethylamino)-6-[(5-methylfurfuryl)amino]-9-(tetrahydrofuran-2-yl)-9H-purine]				11.2						IC50 at 72 h [10]: > 167 µM; IC50 at 72 h [11]: > 167 µM; IC50 at 72 h [12]: > 167 µM; ORAC (compound/trolox) [13]: 0.14 ± 0.004
CNc1nc(NCc2occc2OC)c2ncn(C3CCCO3)c2n1 (stereo not drawn) [Compound 49]				12.3		> 167	> 167	> 167	> 167	
CN(C)CCNc1nc(NCc2ccco2)c2ncn(C3CCCCO3)c2n1 (stereo not drawn) [Compound 116, 2-{[2-(Dimethylamino)ethyl]amino}-6-furfurylamino-9-(tetrahydro-2H-pyran-2-yl)-9H-purine]				9.2						IC50 at 72 h [10]: > 167 µM; IC50 at 72 h [11]: > 167 µM; IC50 at 72 h [12]: > 167 µM; ORAC (compound/trolox) [13]: 2.475 ± 0.086
c1coc(CNc2ncnc3nc[nH]c23)c1 [Kinetin, N^6-furfuryladenine, reference compound]	> 167	148	164	14.2	133					
CC(C)=CCNc1ncnc2nc[nH]c12 [isopentenyladenine, reference compound]						> 167	147	124	134	
Oc1cccc(CNc2ncnc3nc[nH]c23)c1 [meta-topolin, reference compound]						> 167	≥ 178	≥ 167	166	
